We go through 2 compounds from patent publication US20240299373A1, “IMPROVED USE OF TRADIPITANT IN MOTION SICKNESS” (Vanda Pharmaceuticals Inc., priority 2023, published 2024).

Each structure is given as a SMILES string. Marks after values point to notes of the source that are not given here.

The subject of test [1] is vomiting due to motion sickness. Conditions: crossover study; cited from earlier work.
Test [2] concerns apomorphine-induced emesis. The test can be described thus: Emetic challenge study (apomorphine-induced emesis) in beagle dogs. The test is classed as in vivo, beagle dog. As to conditions: 3.0 mg/kg oral, apomorphine 0.1 mg/kg iv 2 hours later, five dogs; APO control 28. The method, then:
Over the five (5) weeks of the study, each animal receives each of the treatments, but only one per week. The purpose of this study is to determine if tradipitant suppresses apomorphine-induced emesis.
The mid dose of tradipitant is the approximate half-log interval between the low and high doses.
All animals are dosed over a period of five (5) weeks, with each dog receiving one of five different treatments on each day of dosing.
All dogs are fasted overnight prior to each treatment day and then fed approximately one (1) hour after oral dosing (approximately one (1) hour prior to administration of apomorphine). Individual doses are adjusted weekly for changes in body weight.
The dose regimen consists of a 5×5 Latin square design, in which each subject receives 1 dose or dose combination per week (6 day washout) as shown in Table 3 below.

In test [3] the target is T1, NK-1 receptor (Meriones unguiculatus, UniProt Q5DUB1).
T1 construct: centrally acting NK-1 receptor antagonist in vivo in the gerbil; from tissue; host or cells: brain of living Mongolian gerbils
T1 sequence (Q5DUB1 whole entry): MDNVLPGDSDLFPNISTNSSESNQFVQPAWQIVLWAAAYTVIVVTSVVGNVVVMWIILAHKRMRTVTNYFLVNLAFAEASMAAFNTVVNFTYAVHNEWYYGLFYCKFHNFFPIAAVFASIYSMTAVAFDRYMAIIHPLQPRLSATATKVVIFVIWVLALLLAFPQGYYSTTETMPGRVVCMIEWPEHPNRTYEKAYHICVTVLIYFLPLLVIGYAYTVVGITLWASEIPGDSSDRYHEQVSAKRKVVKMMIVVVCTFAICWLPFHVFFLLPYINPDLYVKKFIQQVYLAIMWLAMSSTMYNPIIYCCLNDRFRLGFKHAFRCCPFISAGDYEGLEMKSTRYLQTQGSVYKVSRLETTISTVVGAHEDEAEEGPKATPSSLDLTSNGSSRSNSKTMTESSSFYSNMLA
The test can be described thus: NK-1 agonist (GR73632, icv)-induced foot-tapping behavior in gerbils. The test is classed as in vivo. As to conditions: gerbil, 1 mg/kg. The method, then:
Male Mongolian gerbils (Harlan Sprague Dawley, Indianapolis, IN) weighing 26 to 40 grams are administered the selective neurokinin-1 receptor agonist GR73632 (3 pmol) via direct, vertical, free-hand intracerebroventricular (icy) injection to a depth of 4.5 mm below bregma with a cuffed 27-gauge needle attached to a 50 μl Hamilton syringe. Immediately after injection, animals are placed individually into isolated chambers with pressure-sensitive velocimeter platform floors (San Diego Instruments acoustic startle apparatus) that detect and quantify vibration. The San Diego Instruments “SR” DOS-based computer program is used on a PC to record the number of foot-taps over the following 6 to 10 minutes, beginning 30 seconds after the floor is lightly tapped. […] The total number and average intensity of events over the duration is determined. Total number of taps is analyzed with one-way ANOVA and post-hoc Dunnett's test using JMP statistical software.
A dose-response curve (with doses of 0.3, 1, 3 and 10 pmols, icy) is initially generated with the NK-1 agonist GR73632.
NK-1 antagonists are tested for their ability to attenuate GR73632-induced foot tapping. NK-1 antagonists are administered (po) via oral feeding tube at doses and time points specified in each experiment. […]
NK-1 antagonists are administered at multiple doses (at least 3; one dose per animal) and response to GR73632 is measured. […]

With `COc1ccc(C(C)(C)C)cc1CN[C@H]1C2CCN(CC2)[C@H]1C(c1ccccc1)c1ccccc1` [Maropitant], the “dogs in which occurrence of vomiting was reduced as compared to placebo” value in test [1] is “over 75%”.

On to `C[C@@H](O[C@H]1OCCN(Cc2n[nH]c(=O)[nH]2)[C@H]1c1ccc(F)cc1)c1cc(C(F)(F)F)cc(C(F)(F)F)c1` [Aprepitant, reference compound], for which the “Total No. Emetic Episodes” value in test [2] is 1**. Moreover, in test [3], the “time after administration up to which foot-tapping behavior is inhibited” value was “up to 24 hours”.
